{"source": "the supplement of paper PMC4723716", "system": "Plasmodium falciparum NF54 gametocytes", "conditions": "384, incubation time: 72 h", "outline": "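In 384-well plates, P. falciparum NF54 gametocytes at each stage (I–V) were treated in duplicate with compound dilutions for 72 hr at 37°C under low oxygen, using either a serum-free one-step or a serum-containing two-step assay. Surviving gametocytes were stained with MitoTracker Red CMXRos, counted by high-content imaging and normalised to the plate mean of vehicle wells. A standard logistic regression model was used to fit IC50.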", "key": {"[1]": {"conditions": "gametocyte stage: Stage I Dose Response IC50 (µM), assay protocol: SaLSSA"}, "[2]": {"conditions": "gametocyte stage: Stage II Dose Response IC50 (µM), assay protocol: SaLSSA"}, "[3]": {"conditions": "gametocyte stage: Stage III Dose Response IC50 (µM), assay protocol: SaLSSA"}, "[4]": {"conditions": "gametocyte stage: Stage IV Dose Response IC50 (µM), assay protocol: SaLSSA"}, "[5]": {"conditions": "gametocyte stage: Stage V Dose Response IC50 (µM), assay protocol: SaLSSA"}, "[6]": {"conditions": "gametocyte stage: Stage I Dose Response IC50 (µM), assay protocol: TSSA"}, "[7]": {"conditions": "gametocyte stage: Stage II Dose Response IC50 (µM), assay protocol: TSSA"}, "[8]": {"conditions": "gametocyte stage: Stage III Dose Response IC50 (µM), assay protocol: TSSA"}, "[9]": {"conditions": "gametocyte stage: Stage IV Dose Response IC50 (µM), assay protocol: TSSA"}, "[10]": {"conditions": "gametocyte stage: Stage V Dose Response IC50 (µM), assay protocol: TSSA"}}, "data": [{"smiles": "COc1cc(N[C@H](C)CCCN)c2nccc(C)c2c1Oc1ccc(Cl)c(Cl)c1", "note": "[NPC-1161B] [listing 1 of 2 here]", "values": [{"measurement": "IC50 of gametocyte viability", "setting": "[1]", "value": 2, "unit": "µM"}, {"measurement": "IC50 of gametocyte viability", "setting": "[2]", "value": 2.02, "unit": "µM"}, {"measurement": "IC50 of gametocyte viability", "setting": "[3]", "value": 3.51, "unit": "µM"}, {"measurement": "IC50 of gametocyte viability", "setting": "[4]", "value": 3.6, "unit": "µM"}, {"measurement": "IC50 of gametocyte viability", "setting": "[5]", "value": 2.86, "unit": "µM"}]}, {"smiles": "COc1cc(N[C@H](C)CCCN)c2nccc(C)c2c1Oc1ccc(Cl)c(Cl)c1", "note": "[NPC-1161B] [listing 2 of 2 here]", "values": [{"measurement": "IC50 of gametocyte viability", "setting": "[6]", "value": 5.21, "unit": "µM"}, {"measurement": "IC50 of gametocyte viability", "setting": "[7]", "value": 6.63, "unit": "µM"}, {"measurement": "IC50 of gametocyte viability", "setting": "[8]", "value": 4.57, "unit": "µM"}, {"measurement": "IC50 of gametocyte viability", "setting": "[9]", "value": 6.24, "unit": "µM"}, {"measurement": "IC50 of gametocyte viability", "setting": "[10]", "value": 5.22, "unit": "µM"}]}, {"smiles": "C[C@H]1[C@H](OC(=O)CCC(=O)O)O[C@@H]2O[C@@]3(C)CC[C@H]4[C@H](C)CC[C@@H]1[C@@]24OO3", "note": "[Artesunate]", "values": [{"measurement": "IC50 of gametocyte viability", "setting": "[6]", "value": 0.00565, "unit": "µM"}, {"measurement": "IC50 of gametocyte viability", "setting": "[7]", "value": 0.00577, "unit": "µM"}, {"measurement": "IC50 of gametocyte viability", "setting": "[8]", "value": 0.0172, "unit": "µM"}, {"measurement": "IC50 of gametocyte viability", "setting": "[9]", "value": 0.02, "unit": "µM"}, {"measurement": "IC50 of gametocyte viability", "setting": "[10]", "value": "> 12.5", "unit": "µM"}]}, {"smiles": "CC[C@H]1OC(=O)[C@H](C)[C@H](O[C@H]2C[C@@](C)(OC)[C@@H](O)[C@H](C)O2)[C@H](C)[C@@H](O[C@@H]2O[C@H](C)C[C@H](N(C)C)[C@H]2O)[C@](C)(O)C[C@@H](C)CN(C)[C@H](C)[C@H](O)[C@]1(C)O", "note": "[Azithromycin]", "values": [{"measurement": "IC50 of gametocyte viability", "setting": "[1]", "value": "> 12.5", "unit": "µM"}, {"measurement": "IC50 of gametocyte viability", "setting": "[2]", "value": "> 12.5", "unit": "µM"}, {"measurement": "IC50 of gametocyte viability", "setting": "[3]", "value": "> 12.2", "unit": "µM"}, {"measurement": "IC50 of gametocyte viability", "setting": "[4]", "value": "> 12.5", "unit": "µM"}, {"measurement": "IC50 of gametocyte viability", "setting": "[5]", "value": "> 12.5", "unit": "µM"}]}]}
